Measurements from patent publication US20220315578A1, “BRD9 BIFUNCTIONAL DEGRADERS AND THEIR METHODS OF USE” (NOVARTIS AG, priority 2019, published 2022).

Molecular target: T1, BRD9-GFP (Homo sapiens, UniProt Q9H8M2)
T1 construct: CHYSEL (2A cis-acting hydrolase element) remnant after GFP; mCherry is split off as a separate protein (C); expressed in transfected cells; host or cells: HEK293A cells (Invitrogen R70507), lentiviral transduction with pLenti6-BRD9-GFP-CHYSEL-mCherry, blasticidin selection
T1 sequence (Q9H8M2 1-597): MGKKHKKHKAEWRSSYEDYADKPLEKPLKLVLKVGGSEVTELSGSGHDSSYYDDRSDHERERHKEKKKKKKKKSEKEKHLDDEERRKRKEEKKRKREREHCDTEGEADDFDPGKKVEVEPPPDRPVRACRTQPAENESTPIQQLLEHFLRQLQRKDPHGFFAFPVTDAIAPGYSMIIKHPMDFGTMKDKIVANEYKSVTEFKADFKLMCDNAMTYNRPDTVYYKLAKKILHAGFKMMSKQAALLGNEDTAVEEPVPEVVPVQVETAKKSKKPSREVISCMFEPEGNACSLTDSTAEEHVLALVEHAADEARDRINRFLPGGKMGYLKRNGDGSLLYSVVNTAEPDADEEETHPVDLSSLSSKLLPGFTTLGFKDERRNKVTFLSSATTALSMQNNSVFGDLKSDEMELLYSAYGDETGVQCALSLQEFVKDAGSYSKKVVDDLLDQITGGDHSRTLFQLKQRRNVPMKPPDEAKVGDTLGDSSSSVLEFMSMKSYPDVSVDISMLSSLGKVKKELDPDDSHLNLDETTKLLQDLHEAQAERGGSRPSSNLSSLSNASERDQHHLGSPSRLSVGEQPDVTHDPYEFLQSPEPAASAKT
Experiment: BRD9-GFP protein abundance flow cytometry assay in HEK293A cells
Assay type: cell-based
Conditions: HEK293A-BRD9-GFP-CHYSEL-mCherry cells; for BRD9 Deg Amax %: 24 h, % protein remaining at the concentration at which maximum degradation is seen; for DC50: 24 h at 37° C., 10-point 1:3 dilution, concentration at which 50% maximal degradation was observed
Protocol: Compounds of the invention were tested in the following cellular assays. The terms in Table 1 are defined as follows: DC50 refers to the concentration at which 50% maximal degradation was observed; deg Amax is the extent of degradation and the value refers to the % protein remaining at the concentration at which maximum degradation is seen.
BRD9-GFP protein abundance flow cytometry assay in HEK293A cells: Degradation of BRD9 was measured in HEK293A cells expressing BRD9-GFP and mCherry from a stably integrated second generation bicistronic BRD9-GFP-CHYSELmCherry construct. Reduction of the GFP signal measured by flow cytometry served as readout for BRD9 degradation after degrader treatment.
The bicistronic BRD9-GFP-CHYSEL-mCherry construct is based on a pLenti6-DEST vector backbone where a GFP-CHYSEL-mCherry cassette was synthesized and inserted downstream of the DEST cassette by Gibson assembly resulting in the new gateway compatible vector pLenti6-DEST-GFP-CHYSEL-mCherry to allow Gateway cloning with pENTR221-BRD9 (w/o ATG) to obtain the final sensor construct pLenti6-BRD9-GFP-CHYSEL-mCherry.
HEK293 Å-BRD9-GFP-CHYSEL-mCherry sensor cells were generated by lentiviral vector transduction using the pLenti6-BRD9-GFP-CHYSEL-mCherry sensor construct described before. […] The mix was incubated for another 20 min at RT and then added to 1 ml of a freshly prepared suspension of HEK293FT cells in a well of a 6-well plate (concentration 1.2×10^6 cells/ml). 1 day after transfection, the medium was replaced with 1.5 ml of complete growth medium (DMEM high Glucose+10% FCS+1% L-Glutamine+1% NEAA+1% NaPyr.). 48 h post transfection supernatant containing viral transducing particles was collected and frozen at −80° C. […] Infection was performed with […] of collected supernatant containing viral transducing particles in 1 ml medium including 8 μg/ml polybrene. 24 h post infection, stably transfected cells were selected with blasticidin at a concentration of 8 μg/ml.
Stable HEK293 Å-BRD9-GFP-CHYSEL-mCherry cells were maintained in complete growth medium (DMEM high Glucose+10% FCS+1% L-Glutamine+1% NEAA+1% NaPyr.) with passaging performed twice per week. On Day 0, HEK293 Å-BRD9-GFP-CHYSEL-mCherry cells were seeded at 10,000 cells/well in a 96-well microtiter plate in […] complete medium. On Day 1, cells were treated in duplicate with 10-point 1:3 dilution series of compound using the HP D300 Digital Dispenser (Tecan). DMSO concentrations were normalized across the plate to 0.1%. On Day 2, after 24 h of incubation at 37° C., treatment media was discarded, cells rinsed with 100 ul/well PBS and then detached using 40 ul trypsin/well for 5 min. Trypsin was neutralized with 100 ul/well PBS+20% FCS). Flow cytometry was performed on the samples using the Beckman Coulter CytoFLEX flow cytometer. Cell identification was then performed using forward (FSC) vs. side scatter (SSC) plots. Single cell discrimination is performed using FSC-Width (FSC-W) vs. FSC-Height (FSC-H) plots. Median GFP/mCherry ratio values for 5,000 single cells are used to determine BRD9 levels. Median GFP/mCherry ratio values from HEK293 Å-mCherry are used as a background signal and thus defining 0% BRD9 signal. Median GFP/mCherry ratio values from DMSO treated HEK293 Å-BRD9-GFP-CHYSEL-mCherry are used to define 100% BRD9 signal for subsequent DC50 curves (concentration at 50% BRD9 degradation). Concentration response curves plotting relative reduction of the GFP/mCherry ratio signal (measured by flow cytometry) versus 10 compound concentrations (starting concentration […], 3 fold dilution steps) of the compounds allowed generation of DC50 values. Data is shown in Tables 2 and 3, in which, DC50 refers to the concentration at which 50% maximal degradation was observed; deg Amax is the extent of degradation and the value refers to the % protein remaining at the concentration at which maximum degradation is seen.

| BRD9 Deg Amax % | DC50 | SMILES |
| --- | --- | --- |
| 12.12% | 1 nM | COc1cc(-c2cn(C)c(=O)c(C)c2C)cc(OC)c1CCN1CCC(OC2CCN(C(=O)c3ccc(Cl)c(N4CCC(=O)NC4=O)c3)CC2)CC1 [Compound A21, 1-(2-Chloro-5-(4-((1-(2,6-dimethoxy-4-(1,4,5-trimethyl-6-oxo-1,6-dihydropyridin-3-yl)phenethyl)piperidin-4-yl)oxy)piperidine-1-carbonyl)phenyl)dihydropyrimidine-2,4(1H,3H)-dione] |
| 18.64% | 19 nM | COc1cc(-c2cn(C)c(=O)c3cnccc23)ccc1OCC1CCN(CC2CCN(C(=O)c3ccc(OC)c(N4CCC(=O)NC4=O)c3)CC2)CC1 [Compound A5, 1-(2-Methoxy-5-(4-((4-((2-methoxy-4-(2-methyl-1-oxo-1,2-dihydro-2,7-naphthyridin-4-yl)phenoxy)methyl)piperidin-1-yl)methyl)piperidine-1-carbonyl)phenyl)dihydropyrimidine-2,4(1H,3H)-dione] |
| 13.06% | 2 nM | CCCCn1cc(-c2ccc(CN3CCC(OC4CCN(C(=O)c5ccc(OC)c(N6CCC(=O)NC6=O)c5)CC4)CC3)cc2)c2ccncc2c1=O [Compound E13, 1-(5-(4-((1-(4-(2-butyl-1-oxo-1,2-dihydro-2,7-naphthyridin-4-yl)benzyl)piperidin-4-yl)oxy)piperidine-1-carbonyl)-2-meth-oxyphenyl)dihydro-pyrimidine-2,4(1H,3H)-dione] |
| 14.01% | 4 nM | COc1cc(-c2cn(C)c(=O)c3cnccc23)ccc1OC1CCN(CC2CCN(C(=O)c3ccc(OC)c(N4CCC(=O)NC4=O)c3)CC2)CC1 [Compound A4, 1-(2-Methoxy-5-(4-((4-(2-methoxy-4-(2-methyl-1-oxo-1,2-dihydro-2,7-naphthyridin-4-yl)phenoxy)piperidin-1-yl)methyl)piperidine-1-carbonyl)phenyl)dihydropyrimidine-2,4(1H,3H)-dione] |
| 19.82% | 17 nM | COc1cc(-c2cn(C)c(=O)c3cnccc23)cc(OC)c1CCN1CCC(OC2CCN(CCn3cccc(CN4CCC(=O)NC4=O)c3=O)CC2)CC1 [Compound C4, 1-((1-(2-(4-((1-(2,6-dimethoxy-4-(2-methyl-1-oxo-1,2-dihydro-2,7-naphthyridin-4-yl)phenethyl)piperidin-4-yl)oxy)piperidin-1-yl)ethyl)-2-oxo-1,2-dihydropyridin-3-yl)methyl)dihydropyrimidine-2,4(1H,3H)-dione] |
| 16.58% | 1 nM | CCCCn1cc(-c2ccc(O[C@H]3CCN(CC4CCN(C(=O)c5ccc(OC)c(N6CCC(=O)NC6=O)c5)CC4)C[C@@H]3F)c(F)c2)c2ccncc2c1=O [Compound E16, 1-(5-(4-(((3S,4S)-4-(4-(2-butyl-1-oxo-1,2-dihydro-2,7-naphthyridin-4-yl)-2-fluorophenoxy)-3-fluoropiperidin-1-yl)methyl)piperidine-1-carbonyl)-2-meth-oxyphenyl)dihydro-pyrimidine-2,4(1H,3H)-dione] |
| 14.60% | 4 nM | COc1cc(-c2cn(C)c(=O)c3cnccc23)c(OC)cc1CN1CC[C@@H](OC2CCN(CCn3cccc(CN4CCC(=O)NC4=O)c3=O)CC2)[C@H](F)C1 [Compound E39, 1-((1-(2-(4-(((3R,4R)-1-(2,5-Dimethoxy-4-(2-methyl-1-oxo-1,2-dihydro-2,7-naphthyridin-4-yl)benzyl)-3-fluoropiperidin-4-yl)oxy)piperidin-1-yl)ethyl)-2-oxo-1,2-dihydropyridin-3-yl)methyl)dihydropyrimidine-2,4(1H,3H)-dione] |
| 14.99% | 4 nM | CCCn1cc(-c2cc(F)c(CCN3CCC(OC4CCN(C(=O)c5ccc(Cl)c(N6CCC(=O)NC6=O)c5)CC4)CC3)c(OC)c2)c(C)c(C)c1=O [Compound E52, 1-(2-Chloro-5-(4-((1-(4-(4,5-dimethyl-6-oxo-1-propyl-1,6-dihydropyridin-3-yl)-2-fluoro-6-methoxyphenethyl)piperidin-4-yl)oxy)piperidine-1-carbonyl)phenyl)dihydropyrimidine-2,4(1H,3H)-dione] |
| 18.33% | 4 nM | CCCCn1cc(-c2ccc(CN3CCC(OC4CCN(C(=O)c5ccc(OC)c(N6CCC(=O)NC6=O)c5)CC4)CC3)c(F)c2)c2ccncc2c1=O [Compound E54, 1-(5-(4-((1-(4-(2-butyl-1-oxo-1,2-dihydro-2,7-naphthyridin-4-yl)-2-fluorobenzyl)piperidin-4-yl)oxy)piperidine-1-carbonyl)-2-methoxyphenyl)dihydropyrimidine-2,4(1H,3H)-dione] |
| 13.59% | 29 nM | COc1cc(-c2cn(C)c(=O)c3cnccc23)c(OC)cc1CN1CCC(OC2CCN(CCn3cccc(CN4CCC(=O)NC4=O)c3=O)CC2)CC1 [Compound C1, 1-((1-(2-(4-(1-(2,5-Dimethoxy-4-(2-methyl-1-oxo-1,2-dihydro-2,7-naphthyridin-4-yl)benzyl)piperidin-4-yloxy)piperidin-1-yl)ethyl)-2-oxo-1,2-dihydropyridin-3-yl)methyl)dihydropyrimidine-2,4(1H,3H)-dione] |
| 16.43% | 1 nM | CCCCn1cc(-c2ccc(O[C@H]3CCN(CC4CCN(C(=O)c5ccc(OC)c(N6CCC(=O)NC6=O)c5)CC4)C[C@@H]3F)cc2)c2ccncc2c1=O [Compound E31, 1-(5-(4-(((3S,4S)-4-(4-(2-butyl-1-oxo-1,2-dihydro-2,7-naphthyridin-4-yl)phenoxy)-3-fluoropiperidin-1-yl)methyl)piperidine-1-carbonyl)-2-meth-oxyphenyl)dihydro-pyrimidine-2,4(1H,3H)-dione] |
| 13.73% | 2 nM | CCCn1cc(-c2cc(OC)c(CCN3CCC(OC4CCN(C(=O)c5ccc(Cl)c(N6CCC(=O)NC6=O)c5)CC4)CC3)c(OC)c2)c(C)c(C)c1=O [Compound B2, 1-(2-Chloro-5-(4-(1-(4-(4,5-dimethyl-6-oxo-1-propyl-1,6-dihydropyridin-3-yl)-2,6-dimethoxyphenethyl)piperidin-4-yloxy)piperidine-1-carbonyl)phenyl)dihydropyrimidine-2,4(1H,3H)-dione] |
